Laboratory results taken from patent publication EP0767778B1, “1-PHENOXY-3-N-ALKYLAMINOPROPAN-2-OL HALOGEN DERIVATIVES USEFUL AS MYOCARDIAL beta [sequence] RECEPTOR MARKERS AND AS beta-BLOCKING AGENTS” (CIS BIO INTERNATIONAL, priority 1994, dated 1996).

Experiments:
[1] = octanol-water partition coefficient at room temperature; format: physicochemical; conditions: pH 7
[2] = biodistribution study in the mouse (Example 22); format: in vivo, souris; conditions: souris swiss femelles, injection intraveineuse
Experimental: L'étude de la biodistribution des radioligands chez la souris, permet d'apprécier l'intensité relative de la fixation cardiaque de la molécule et son évolution dans le temps.
Après marquage à l'iode 123 et purification par CLHP 20µCi environ de produit sont mis en solution dans 5 ml d'une solution : éthanol 20%-sérum physiologique 80%. Après injection intraveineuse de 25 µl de cette solution dans la queue de souris vigiles (souris swiss femelles de 20 à 25 g), celles-ci (5 à chaque fois) sont sacrifiées à différents temps après l'injection. On mesure pour chaque souris les activités cardiaques, hépatique, rénale et pulmonaire. Les résultats sont exprimés en pourcentage de la dose injectée par gramme d'organe.
Le CGP12177 étant la référence, un lot de souris a été étudié après injection de CGP 12177 marqué au tritium.

[3] = tested on: récepteurs β adrénergiques; test: isolated perfused rat heart (Langendorff), antagonism of isoprenaline on dP/dt max; conditions: for DP/dt max: n=6
Experimental: Dans cet exemple, on teste la propriété pharmacologique antagoniste du composé 6 vis-à-vis des récepteurs β adrénergiques.
L'expérience est conduite sur coeur de rat isolé et perfusé selon la technique de Langendorff.
Après une préperfusion de 25 minutes avec une solution de Krebs-Henseleit, le coeur est perfusé avec de l'isoprénaline à la concentration de 10^-8M pendant 10 minutes; puis avec une solution d'isoprénaline à 10^-8M associée à la molécule à tester à la concentration de 10^-6M.
Si la molécule à tester diminue la dP/dt max en présence d'isoprénaline, on pourra affirmer que cette molécule se comporte comme un antagoniste de l'isoprénaline vis-à-vis des récepteurs β adrénergiques.

[4] = Isoprénaline + molécule (10^e+8 min), isoprénaline 10^-8M, test molecule 10^-6M

Row | Compound | Coefficient de partage octanol-eau à pH 7 [1] | Biodistribution Foie ([2]; 2') | Biodistribution Rein ([2]; 2') | Biodistribution Foie ([2]; 5') | Biodistribution Rein ([2]; 5') | Biodistribution Foie ([2]; 10') | Biodistribution Rein ([2]; 10') | Biodistribution Coeur ([2]; 15") | Biodistribution Foie ([2]; 15") | Biodistribution Poumon ([2]; 15") | Biodistribution Rein ([2]; 15") | Biodistribution Coeur ([2]; 15') | Biodistribution Foie ([2]; 15') | Biodistribution Poumon ([2]; 15') | Biodistribution Rein ([2]; 15') | Biodistribution Coeur ([2]; 2 min.) | Biodistribution Poumon ([2]; 2 min.) | Biodistribution Coeur ([2]; 5 min.) | Biodistribution Poumon ([2]; 5 min.) | Biodistribution Coeur ([2]; 10 min.) | further results
1 | 1-[4-(2-iodoéthylènamido)phénoxy]-3-isopropylaminopropan-2-ol [composé 15] | 2,91 | 6 ± 0,75 pourcentage de la dose injectée par gramme d'organe | 20,9 ± 2,5 pourcentage de la dose injectée par gramme d'organe | 3,6 ± 0,4 pourcentage de la dose injectée par gramme d'organe | 13,3 ± 0,6 pourcentage de la dose injectée par gramme d'organe | 2,6 ± 0,2 pourcentage de la dose injectée par gramme d'organe | 7,2 ± 0,4 pourcentage de la dose injectée par gramme d'organe | 16,2 ± 2,1 pourcentage de la dose injectée par gramme d'organe | 4,8 ± 0,2 pourcentage de la dose injectée par gramme d'organe | 55 ± 12 pourcentage de la dose injectée par gramme d'organe | 17,1 ± 1,2 pourcentage de la dose injectée par gramme d'organe | 3,2 ± 0,2 pourcentage de la dose injectée par gramme d'organe | 2,6 ± 0,2 pourcentage de la dose injectée par gramme d'organe | 11,2 ± 2,2 pourcentage de la dose injectée par gramme d'organe | 6,3 ± 1 pourcentage de la dose injectée par gramme d'organe | 14,4 ± 0,9 pourcentage de la dose injectée par gramme d'organe | 34 ± 6 pourcentage de la dose injectée par gramme d'organe | 8,4 ± 0,3 pourcentage de la dose injectée par gramme d'organe | 25 ± 6 pourcentage de la dose injectée par gramme d'organe | 3,6 ± 0,7 pourcentage de la dose injectée par gramme d'organe | Biodistribution Coeur ([2]; 30'): 2,2 ± 0,15 pourcentage de la dose injectée par gramme d'organe; Biodistribution Foie ([2]; 30'): 2,1 ± 0,1 pourcentage de la dose injectée par gramme d'organe; Biodistribution Poumon ([2]; 30'): 8,4 ± 0,8 pourcentage de la dose injectée par gramme d'organe; Biodistribution Rein ([2]; 30'): 4,8 ± 0,6 pourcentage de la dose injectée par gramme d'organe; Biodistribution Poumon ([2]; 10 min.): 13,2 ± 3,1 pourcentage de la dose injectée par gramme d'organe
2 | CC(C)NCC(O)c1ccc(O)c(O)c1 (stereo not shown) [Isoprenaline] |  |  |  |  |  |  |  |  |  |  |  |  |  |  |  |  |  |  |  |  | DP/dt max ([3]; Isoprénaline (10^e min), isoprénaline 10^-8M alone): 2535±1233 mmHg/min; DP/dt max [3, 4]: 2398±1088 mmHg/min; augmentation de la dP/dt max par rapport à la préperfusion ([3]; isoprénaline seule 10^-8M): 254%
3 | CC(C)NCC(O)COc1cccc2ccccc12 (stereo not shown) [propranolol] |  |  |  |  |  |  |  |  |  |  |  |  |  |  |  |  |  |  |  |  | DP/dt max [3, 4]: 814±240 mmHg/min; effect on the action of isoprénaline on dP/dt max ([3]; isoprénaline 10^-8M + molecule 10^-6M): revient à la valeur basale
4 | CC(C)NCC(O)COc1ccc(OCOCC=CI)cc1 (racemic) [composé 10, 1-[4-(5-iodo-2-oxapent-4-ényloxy)phénoxy]3-isopropylaminopropan-2-ol] | 13,2 | 7,2 ± 1,1 pourcentage de la dose injectée par gramme d'organe | 14,8 ± 1 pourcentage de la dose injectée par gramme d'organe | 10,2 ± 1,1 pourcentage de la dose injectée par gramme d'organe | 14 ± 1,1 pourcentage de la dose injectée par gramme d'organe | 6,3 ± 3,3 pourcentage de la dose injectée par gramme d'organe | 10,7 ± 1,1 pourcentage de la dose injectée par gramme d'organe | 28,4 ± 3,6 pourcentage de la dose injectée par gramme d'organe | 1,7 ± 0,8 pourcentage de la dose injectée par gramme d'organe | 144,52 pourcentage de la dose injectée par gramme d'organe | 11,4 ± 5,1 pourcentage de la dose injectée par gramme d'organe | 3,9 ± 0,2 pourcentage de la dose injectée par gramme d'organe | 9 ± 0,2 pourcentage de la dose injectée par gramme d'organe | 2,3 ± 7 pourcentage de la dose injectée par gramme d'organe | 9,1 ± 0,4 pourcentage de la dose injectée par gramme d'organe | 15 ± 1,5 pourcentage de la dose injectée par gramme d'organe | 60 ± 10 pourcentage de la dose injectée par gramme d'organe | 9,5 ± 2,3 pourcentage de la dose injectée par gramme d'organe | 58 ± 4 pourcentage de la dose injectée par gramme d'organe | 5,3 ± 0,15 pourcentage de la dose injectée par gramme d'organe | Biodistribution Coeur ([2]; 30'): 3,1 ± 0,15 pourcentage de la dose injectée par gramme d'organe; Biodistribution Foie ([2]; 30'): 7,2 ± 0,8 pourcentage de la dose injectée par gramme d'organe; Biodistribution Poumon ([2]; 30'): 22 ± 4 pourcentage de la dose injectée par gramme d'organe; Biodistribution Rein ([2]; 30'): 7,6 ± 0,2 pourcentage de la dose injectée par gramme d'organe; Biodistribution Poumon ([2]; 10 min.): 33 ± 14 pourcentage de la dose injectée par gramme d'organe
5 | 1-{4-[2-(2-iodoéthoxy) éthoxy]phénoxy}-3-isopropyl-aminopropan-2-ol [composé 16] | 6,7 | 3,6 ± 0,5 pourcentage de la dose injectée par gramme d'organe | 16,4 ± 3,6 pourcentage de la dose injectée par gramme d'organe | 7,2 ± 1,6 pourcentage de la dose injectée par gramme d'organe | 19,5 ± 5 pourcentage de la dose injectée par gramme d'organe | 7,8 ± 1,6 pourcentage de la dose injectée par gramme d'organe | 15,4 ± 2 pourcentage de la dose injectée par gramme d'organe | 20,4 ± 3,8 pourcentage de la dose injectée par gramme d'organe | 1,5 ± 0,8 pourcentage de la dose injectée par gramme d'organe | 112 ± 37 pourcentage de la dose injectée par gramme d'organe | 4 ± 2,6 pourcentage de la dose injectée par gramme d'organe | 3,6 ± 0,4 pourcentage de la dose injectée par gramme d'organe | 7,9 ± 0,5 pourcentage de la dose injectée par gramme d'organe | 29,6 ± 4 pourcentage de la dose injectée par gramme d'organe | 14 ± 2,6 pourcentage de la dose injectée par gramme d'organe | 13 ± 1,3 pourcentage de la dose injectée par gramme d'organe | 73,3 ± 10 pourcentage de la dose injectée par gramme d'organe | 7 ± 0,7 pourcentage de la dose injectée par gramme d'organe | 52,7 ± 4 pourcentage de la dose injectée par gramme d'organe | 4,1 ± 0,4 pourcentage de la dose injectée par gramme d'organe | Biodistribution Poumon ([2]; 10 min.): 38,9 ± 5,3 pourcentage de la dose injectée par gramme d'organe
